# Measured values reported in US20090232912A1, “Method For Preparing Extract For The Prevention and Treatment Of Hyperlipidemia and Obesity From the Extract of Aster Spathulifolius Aerial Part and Composition Containing The Same” (priority 2005, published 2009).
# Marks after values point to notes of the source that are not given here.
# Legend:
# Type in all cases: in vivo, rat (Sprague-Dawley male)
# rats fed high fat diet [1] = experiment: Experiment 4: serum leptin, insulin and glucose; details: Exp.4 HFD rats; AE-B 125, AE-C 100, AE-1 10, ABP 1.5 mg/kg once a day 6 weeks
# Excerpt: (§1) The rats, aged 6 week-old and weighing 170˜180 g Sprague-Dawley male, were purchased from Samtaco (Seoul, Korea). After the animals were given a standard laboratory diet for 1 week, they were divided two groups each group. Rats were fed two diets: the normal diet (ND, n=10) group and high fat diet (HFD, n=50) group. 6 weeks later, HFD group were subdivided five groups. They were administrated with extract of Aster spathulifolius aerial part orally once a day for 6 weeks.
# (§2) After 12 weeks, rats were anesthetized with ether and sacrificed after 14 h of fasting. Blood samples were collected from hepatic vein and centrifuged (3,000 rpm for 10 min at 4° C.). Serum was frozen at −70° C. for the biochemical analysis. The epididymal and abdominal fat pad were immediately weighed, measured size of adipocyte using microscope.
# (§3) Serum leptin and insulin was measured by RIA using Linco leptin assay kit (Linco research Immunoassay, St. Louis, Mo.) and insulin standards (Linco research Immunoassay, St. Louis, Mo.) respectively (FIG. 5).
# rats fed high fat diet [2] = experiment: Experiment 4: body weight, food intake and food efficiency ratio of rats fed high fat diet; details: Exp.4 HFD rats; orally once a day 6 weeks; AE-B 125, AE-C 100, AE-1 10, ABP 1.5 mg/kg
# Excerpt: as §1
# HFD group: High fat diet+0.5% carboxymethycelluose
# HFD+AE-B group: High fat diet+AE-B 125 mg/kg
# HFD+AE-C group: High fat diet+AE-C 100 mg/kg
# HFD+AE-1 group: High fat diet+AE-110 mg/kg
# HFD+ABP group: High fat diet+ABP 1.5 mg/kg
# (§4) The experimental diets contain either a normal fat (11.7% of calories as fat, AIN-76A diet # 100000, Dyets Inc., Bethlehem, Pa., USA) or a high fat (40% of calories as fat, AIN-76A high fat diet # 100496, Dyets Inc., Bethlehem, Pa., USA) (Table 1). During the test period, food intake and body weight were measured twice a week. Food efficiency ratio was calculated by dividing the increase in body weight during the test period by the food intake during the period.
# rats fed high fat diet [3] = experiment: Experiment 4: hepatic lipids (TG, TC, FFA); details: Exp.4 HFD rats; AE-B 125, AE-C 100, AE-1 10, ABP 1.5 mg/kg once a day 6 weeks
# Excerpt: as §1
# (§5) Hepatic lipid was extracted by the method devised by Folch et al. and its content was measured by the same technique used for the serum analysis. […] There was no significant difference in hepatic free fatty acid (FFA) level.
# rats fed high fat diet [4] = experiment: Experiment 4: white adipocyte size and adipose tissue weights; details: Exp.4 HFD rats; after 12 weeks; AE-B 125, AE-C 100, AE-1 10, ABP 1.5 mg/kg once a day 6 weeks
# Excerpt: as §1
# A is ND Group, B is HFD-C group, C is HFD+AE-B group, D is HFD+AE-C group, E is HFD+AE-1 group and F is HFD+ABP group.
# as §2
# rats fed high fat diet [5] = experiment: Experiment 5: adipocyte (fat) weight; details: Exp.5 HFD rats
# Procedure: as §2
# (§6) The rats, aged 6 week-old and weighing 170˜180 g Sprague-Dawley male, were purchased from Samtaco (Seoul, Korea). After the animals were given a standard laboratory diet for 1 week, they were divided two groups each group. Rats were fed two diets: the normal diet (ND, n=8) group and high fat diet (HFD, n=88) group. 6 weeks later, HFD group were subdivided 11 groups (n=8). They were administrated with extract of Aster spathulifolius aerial part orally once a day for 6 weeks.
# Adipocyte weight were determined method of experiment 5. EASA treated groups reduced white adipocyte versus the HFD group, in a dose-dependent manner.
# rats fed high fat diet [6] = experiment: Experiment 5: levels of lipid in liver; details: Exp.5 HFD rats
# Procedure: as §5, §6
# rats fed high fat diet [7] = experiment: Experiment 5: serum levels of leptin and insulin; details: Exp.5 HFD rats
# Procedure: as §3, §6
# Serum leptin and insulin level was measured in the same manner as in Test Example 4. Leptin is a hormone secreted from the adipocyte, in proportion to body fat mass. Leptin and insulin are deeply related with energy homeostasis. Increased leptin induces hyperinsulinemia, which in turn directly stimulates the leptin mRNA in the adipocyte.
# rats fed high fat diet [8] = experiment: Experiment 5: food intake, change of body weights and food efficiency ratio; details: Exp.5 HFD rats
# Procedure: as §4
# The rats, aged 6 week-old and weighing 170˜180 g Sprague-Dawley male, were purchased from Samtaco (Seoul, Korea). After the animals were given a standard laboratory diet for 1 week, they were divided two groups each group. Rats were fed two diets: the normal diet (ND, n=8) group and high fat diet (HFD, n=88) group. 6 weeks later, HFD group were subdivided 11 groups (n=8). They were administrated with extract of Aster spathulifolius aerial part orally once a day for 6 weeks. […]
# AE-1 20 group: High fat diet+AE-1 (Germacrone) 20 mg/kg
# AE-1 10 group: High fat diet+AE-1(Germacrone) 10 mg/kg
# AE-1 5 group: High fat diet+AE-1 (Germacrone) 5 mg/kg […]
# Experimental diet is same table 1 of experiment 4. Food intake, change of body weights and food efficiency ratio were shown Table 6.
# rats fed high fat diet [9] = experiment: Experiment 5: levels of lipid in serum; details: Exp.5 HFD rats
# Procedure: Serum triglyceride (TG), total cholesterol (TC), and HDL-cholesterol (HDL-C) levels were determined using the calorimetric method with commercial kits (Asan Diagnostics, Seoul, Korea). There was no significant difference in serum TG or HDL-C levels, although EASA-treated groups tended to be lower than the HFD-C group (FIG. 4).
# as §6
# In levels of TG, the HFD groups had similar values to the ND group. EASA treated groups reduced the levels of TG versus the HFD group. […] EASA treated groups reduced the levels of TC versus the HFD and ND group.
# [10] = AE-1 5 mg/kg orally once a day 6 weeks
# [11] = AE-1 10 mg/kg orally once a day 6 weeks
# [12] = AE-1 20 mg/kg orally once a day 6 weeks
compound,measurement,setting,value
"CC[C@H](/C=C/[C@@H](C)[C@H]1CC[C@H]2C3=CC[C@H]4C[C@@H](O[C@@H]5O[C@H](CO)[C@@H](O)[C@H](O)[C@H]5O)CC[C@]4(C)[C@H]3CC[C@]12C)C(C)C [ABP, α-Spinasterol 3-O-β-D-glucopyranoide]",Insulin (serum),rats fed high fat diet [1],1.21 ± 0.60^bc ng/ml
same,Leptin (serum),rats fed high fat diet [1],3.98 ± 0.95^b ng/ml
same,12 wk B.W,rats fed high fat diet [2],509.20 ± 39.54^ab g
same,FER (food efficiency ratio),rats fed high fat diet [2],0.139 ± 0.018^b
same,Food intake,rats fed high fat diet [2],26.00 ± 3.64 g/day
same,FFA (hepatic),rats fed high fat diet [3],1.018 ± 0.25 meq/l
same,TC (hepatic),rats fed high fat diet [3],17.59 ± 2.79^b mg/g liver
same,TG (hepatic),rats fed high fat diet [3],2.65 ± 0.48^b mg/g liver
same,Abdominal fat pad,rats fed high fat diet [4],14.98 ± 3.19^b g
same,Epididymal fat pad,rats fed high fat diet [4],11.55 ± 1.96^ab g
"CC(C)=C1C/C=C(\C)CC/C=C(\C)CC1=O [AE-1, Germacron]",Abdominal fat,rats fed high fat diet [5]; [10],14.50 ± 4.43^ab g
same,Epididymal fat,rats fed high fat diet [5]; [10],11.15 ± 2.39^ab g
same,Total fat,rats fed high fat diet [5]; [10],31.09 ± 8.02^b g
same,Visceral fat,rats fed high fat diet [5]; [10],5.45 ± 2.13^b g
same,Abdominal fat,rats fed high fat diet [5]; [11],14.60 ± 2.20^ab g
same,Epididymal fat,rats fed high fat diet [5]; [11],9.97 ± 2.85^b g
same,Total fat,rats fed high fat diet [5]; [11],29.55 ± 5.25^b g
same,Visceral fat,rats fed high fat diet [5]; [11],4.98 ± 1.53^b g
same,Abdominal fat,rats fed high fat diet [5]; [12],13.76 ± 3.11^ab g
same,Epididymal fat,rats fed high fat diet [5]; [12],11.05 ± 1.44^b g
same,Total fat,rats fed high fat diet [5]; [12],29.49 ± 5.26^b g
same,Visceral fat,rats fed high fat diet [5]; [12],4.68 ± 1.78^b g
same,FFA (liver),rats fed high fat diet [6]; [10],0.868 ± 0.28 meq/l
same,TC (liver),rats fed high fat diet [6]; [10],12.81 ± 1.20^bcd mg/g liver
same,TG (liver),rats fed high fat diet [6]; [10],1.95 ± 0.46^b mg/g liver
same,FFA (liver),rats fed high fat diet [6]; [11],0.831 ± 0.30 meq/l
same,TC (liver),rats fed high fat diet [6]; [11],12.84 ± 1.71^bcd mg/g liver
same,TG (liver),rats fed high fat diet [6]; [11],1.81 ± 1.32^b mg/g liver
same,FFA (liver),rats fed high fat diet [6]; [12],0.775 ± 0.25 meq/l
same,TC (liver),rats fed high fat diet [6]; [12],12.14 ± 1.76^cd mg/g liver
same,TG (liver),rats fed high fat diet [6]; [12],1.88 ± 0.55^b mg/g liver
same,Glucose (serum),rats fed high fat diet [1],206.60 ± 42.07^ab mg/dl
same,Insulin (serum),rats fed high fat diet [1],1.00 ± 0.27^bc ng/ml
same,Leptin (serum),rats fed high fat diet [1],3.88 ± 1.01^b ng/ml
same,12 wk B.W,rats fed high fat diet [2],504.40 ± 28.37^b g
same,FER (food efficiency ratio),rats fed high fat diet [2],0.137 ± 0.013^b
same,Food intake,rats fed high fat diet [2],25.82 ± 2.91 g/day
same,Insulin (serum),rats fed high fat diet [7]; [10],1.35 ± 0.28^bc ng/ml
same,Leptin (serum),rats fed high fat diet [7]; [10],7.63 ± 1.69^b ng/ml
same,Insulin (serum),rats fed high fat diet [7]; [11],1.06 ± 0.40^bc ng/ml
same,Leptin (serum),rats fed high fat diet [7]; [11],6.55 ± 6.28^bc ng/ml
same,Insulin (serum),rats fed high fat diet [7]; [12],0.98 ± 0.21^b ng/ml
same,Leptin (serum),rats fed high fat diet [7]; [12],6.70 ± 2.58^b ng/ml
same,12 wk B.W,rats fed high fat diet [8]; [10],501.71 ± 46.64^b g
same,FER (food efficiency ratio),rats fed high fat diet [8]; [10],0.196 ± 0.029^b
same,Food intake,rats fed high fat diet [8]; [10],17.89 ± 2.97 g/day
same,12 wk B.W,rats fed high fat diet [8]; [11],494.75 ± 45.52^b g
same,FER (food efficiency ratio),rats fed high fat diet [8]; [11],0.189 ± 0.026^b
same,Food intake,rats fed high fat diet [8]; [11],18.24 ± 2.93 g/day
same,12 wk B.W,rats fed high fat diet [8]; [12],490.75 ± 18.27^b g
same,FER (food efficiency ratio),rats fed high fat diet [8]; [12],0.194 ± 0.010^b
same,Food intake,rats fed high fat diet [8]; [12],17.48 ± 2.83 g/day
same,FFA (hepatic),rats fed high fat diet [3],0.869 ± 0.25 meq/l
same,TC (hepatic),rats fed high fat diet [3],13.74 ± 0.92^c mg/g liver
same,TG (hepatic),rats fed high fat diet [3],2.20 ± 0.52^b mg/g liver
same,Abdominal fat pad,rats fed high fat diet [4],14.18 ± 4.67^b g
same,Epididymal fat pad,rats fed high fat diet [4],10.21 ± 2.69^b g
same,HDL-cholesterol (serum),rats fed high fat diet [9]; [10],48.39 ± 9.65 mg/dL
same,Total cholesterol (serum),rats fed high fat diet [9]; [10],51.93 ± 10.29^c mg/dl
same,Triglyceride (serum),rats fed high fat diet [9]; [10],91.51 ± 20.50^ab mg/dl
same,HDL-cholesterol (serum),rats fed high fat diet [9]; [11],42.41 ± 8.41 mg/dL
same,Total cholesterol (serum),rats fed high fat diet [9]; [11],62.56 ± 8.33^c mg/dl
same,Triglyceride (serum),rats fed high fat diet [9]; [11],86.94 ± 21.93^ab mg/dl
same,HDL-cholesterol (serum),rats fed high fat diet [9]; [12],55.80 ± 19.57 mg/dL
same,Total cholesterol (serum),rats fed high fat diet [9]; [12],51.91 ± 14.32^c mg/dl
same,Triglyceride (serum),rats fed high fat diet [9]; [12],91.12 ± 24.03^ab mg/dl
"CC(C)CC(N(C)C)C1(c2ccc(Cl)cc2)CCC1 (stereo not drawn) [Sibutramine, reference compound]",Abdominal fat,"rats fed high fat diet [5]; Sibutramine 7.5 mg/kg, 6 weeks",11.44 ± 3.16^b g
same,Epididymal fat,"rats fed high fat diet [5]; Sibutramine 7.5 mg/kg, 6 weeks",8.75 ± 2.57^bc g
same,Total fat,"rats fed high fat diet [5]; Sibutramine 7.5 mg/kg, 6 weeks",25.30 ± 5.77^b g
same,Visceral fat,"rats fed high fat diet [5]; Sibutramine 7.5 mg/kg, 6 weeks",5.11 ± 0.89^b g
same,FFA (liver),"rats fed high fat diet [6]; Sibutramine 7.5 mg/kg, 6 weeks",0.871 ± 0.68 meq/l
same,TC (liver),"rats fed high fat diet [6]; Sibutramine 7.5 mg/kg, 6 weeks",13.52 ± 2.15^bc mg/g liver
same,TG (liver),"rats fed high fat diet [6]; Sibutramine 7.5 mg/kg, 6 weeks",1.84 ± 0.21^b mg/g liver
same,Insulin (serum),"rats fed high fat diet [7]; Sibutramine 7.5 mg/kg, 6 weeks",1.02 ± 0.33^bc ng/ml
same,Leptin (serum),"rats fed high fat diet [7]; Sibutramine 7.5 mg/kg, 6 weeks",6.27 ± 1.89^bc ng/ml
same,12 wk B.W,"rats fed high fat diet [8]; Sibutramine 7.5 mg/kg, 6 weeks",462.00 ± 44.93^bc g
same,FER (food efficiency ratio),"rats fed high fat diet [8]; Sibutramine 7.5 mg/kg, 6 weeks",0.183 ± 0.028^b
same,Food intake,"rats fed high fat diet [8]; Sibutramine 7.5 mg/kg, 6 weeks",16.70 ± 2.68 g/day
same,HDL-cholesterol (serum),"rats fed high fat diet [9]; Sibutramine 7.5 mg/kg, 6 weeks",46.62 ± 12.21 mg/dL
same,Total cholesterol (serum),"rats fed high fat diet [9]; Sibutramine 7.5 mg/kg, 6 weeks",59.79 ± 19.99^c mg/dl
same,Triglyceride (serum),"rats fed high fat diet [9]; Sibutramine 7.5 mg/kg, 6 weeks",82.62 ± 26.39^ab mg/dl
